Here are results for seven compounds from PubChem BioAssay (NCI).

Some test systems named below: BT-549 breast; UACC-257 melanoma; SK-MEL-2 melanoma; CAKI-1 renal; SN12C renal; T-47D breast; KM12 colon; IGROV1 ovarian; UO-31 renal; COLO 205 colon.
Common to all, as to assay: NCI-60 cell line screen, 48 h

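Protocol summary: plate cells (96-well), add compound at 5 concentrations, incubate 48 h, interpolate endpoints linearly. At the GI50, growth is halved. TGI is the concentration that stops growth completely.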 A value given as a limit tells only on which side of the number the result lay.

For `C#CCN(Cc1nc2cc(C(F)(F)F)ccc2nc1-c1ccccc1)c1ccc(OC(F)(F)F)cc1`, the GI50 is 44.9 µM in the experiment on BT-549 breast; above 100 µM in the experiment on UACC-257 melanoma; above 100 µM in the experiment on SK-MEL-2 melanoma; 62 µM in the experiment with CAKI-1 renal; 38.2 µM in the experiment on SN12C renal; 39.1 µM in the experiment with T-47D breast. Moreover, the GI50 was 29.1 µM in the experiment with KM12 colon, 34.8 µM in the experiment on IGROV1 ovarian, 50.7 µM with UO-31 renal and 45.4 µM with COLO 205 colon. The TGI with BT-549 breast, in the experiment on UACC-257 melanoma, in the experiment on SK-MEL-2 melanoma, in the experiment on CAKI-1 renal, in the experiment with SN12C renal and with T-47D breast was above 100 µM throughout. The TGI in the experiment with KM12 colon was 78.8 µM; in the experiment on IGROV1 ovarian, above 100 µM; in the experiment on UO-31 renal, above 100 µM; with COLO 205 colon it was above 100 µM.
Regarding `Cc1nc(-c2ccccc2)c(Cc2ccccc2O)c(=O)[nH]1`, the TGI with BT-549 breast, in the experiment with UACC-257 melanoma, in the experiment with SK-MEL-2 melanoma, in the experiment on CAKI-1 renal, in the experiment on SN12C renal and in the experiment on T-47D breast was above 100 µM throughout. Moreover, the TGI in the experiment with KM12 colon, in the experiment with IGROV1 ovarian, in the experiment with UO-31 renal and with COLO 205 colon was above 100 µM in each case.
As to `N#Cc1cccc(OCc2nc(N)nc(N)c2-c2ccc(Cl)c(Cl)c2)c1`, the GI50 was 3.01 µM with BT-549 breast; 2.92 µM with UACC-257 melanoma; 6.68 µM in the experiment with SK-MEL-2 melanoma; 0.893 µM in the experiment with CAKI-1 renal; 2.23 µM with SN12C renal; 8.25 µM in the experiment with T-47D breast. The GI50 is 2.96 µM in the experiment with KM12 colon, 1.46 µM in the experiment on IGROV1 ovarian, 3.23 µM with UO-31 renal and 5.3 µM with COLO 205 colon. Further, the TGI with BT-549 breast, in the experiment on UACC-257 melanoma, in the experiment on SK-MEL-2 melanoma, with CAKI-1 renal, in the experiment with SN12C renal and in the experiment with T-47D breast was above 100 µM in each case. Also, the TGI in the experiment with KM12 colon is 82.4 µM; in the experiment on IGROV1 ovarian it was above 100 µM; in the experiment with UO-31 renal, above 100 µM; in the experiment on COLO 205 colon it was above 100 µM.
For `Clc1ccc(/C=C/c2cc(N3CCOCC3)c3cc(Cl)c(Cl)cc3n2)cc1`, the GI50 in the experiment on BT-549 breast is 0.706 µM; with UACC-257 melanoma it was above 100 µM; with SK-MEL-2 melanoma, above 100 µM; in the experiment on CAKI-1 renal, above 100 µM; in the experiment with SN12C renal, 1.54 µM; in the experiment on T-47D breast it was above 100 µM. Further, the GI50 is above 51.4 µM in the experiment on KM12 colon, above 100 µM with IGROV1 ovarian, 0.71 µM with UO-31 renal and above 100 µM in the experiment with COLO 205 colon. Besides, the TGI was above 40.2 µM with BT-549 breast; above 100 µM in the experiment with UACC-257 melanoma; above 100 µM with SK-MEL-2 melanoma; above 100 µM in the experiment with CAKI-1 renal; above 100 µM in the experiment with SN12C renal; above 100 µM in the experiment with T-47D breast. Besides, the TGI was above 100 µM in the experiment with KM12 colon, above 100 µM with IGROV1 ovarian, above 45.7 µM with UO-31 renal and above 100 µM in the experiment on COLO 205 colon.
As to `COc1cc(-n2cc(-c3ccc(F)cc3)nc2SCc2ccccc2)cc(OC)c1OC`, the GI50 with BT-549 breast is above 100 µM; with UACC-257 melanoma it was above 100 µM; in the experiment on SK-MEL-2 melanoma, above 100 µM; in the experiment with CAKI-1 renal, above 100 µM; in the experiment on SN12C renal, above 100 µM; in the experiment with T-47D breast it was 9.57 µM. In addition, the GI50 is above 100 µM in the experiment on KM12 colon, above 100 µM in the experiment on IGROV1 ovarian, 9.66 µM with UO-31 renal and above 100 µM in the experiment on COLO 205 colon. Also, the TGI in the experiment on BT-549 breast, in the experiment with UACC-257 melanoma, in the experiment on SK-MEL-2 melanoma, with CAKI-1 renal, in the experiment on SN12C renal and with T-47D breast was above 100 µM in each case. Besides, the TGI with KM12 colon, in the experiment on IGROV1 ovarian, in the experiment on UO-31 renal and in the experiment with COLO 205 colon was above 100 µM in each case.
As for `Cc1ccc2c(c1)c1nc3cc(C)c(C)cc3nc1n2CCN(C)C`, the GI50 with BT-549 breast is 2.46 µM; in the experiment with UACC-257 melanoma, 2.2 µM; with SK-MEL-2 melanoma it was 2.15 µM; in the experiment on CAKI-1 renal it was 1.33 µM; in the experiment with SN12C renal it was 1.44 µM; in the experiment with T-47D breast, 3.34 µM. The GI50 in the experiment on KM12 colon is 2.67 µM; in the experiment with IGROV1 ovarian, 1.93 µM; in the experiment with UO-31 renal it was 1.07 µM; with COLO 205 colon it was 1.24 µM. Moreover, the TGI was 9.05 µM with BT-549 breast; 5.48 µM in the experiment on UACC-257 melanoma; 4.87 µM with SK-MEL-2 melanoma; 4.46 µM with CAKI-1 renal; 8.77 µM in the experiment on SN12C renal; 17.7 µM in the experiment on T-47D breast. The TGI amounted to 10.5 µM in the experiment with KM12 colon, 4.77 µM with IGROV1 ovarian, 3.48 µM in the experiment with UO-31 renal and 4.6 µM with COLO 205 colon.
With `N/C(=C\C(=O)n1nc(-c2ccccc2)cc1N)c1ccccc1`, the GI50 in the experiment with BT-549 breast was 2.56 µM; in the experiment on UACC-257 melanoma it was 17.4 µM; in the experiment with SK-MEL-2 melanoma, 4.96 µM; in the experiment on CAKI-1 renal, 5.96 µM; with SN12C renal, 7.96 µM; in the experiment with T-47D breast it was 3.27 µM. Further, the GI50 with KM12 colon was 2.9 µM; in the experiment on IGROV1 ovarian, 6.38 µM; in the experiment on UO-31 renal, 3.71 µM; in the experiment with COLO 205 colon, 3.6 µM. Besides, the TGI in the experiment on BT-549 breast was 27.4 µM; in the experiment on UACC-257 melanoma it was 70.3 µM; in the experiment on SK-MEL-2 melanoma, 26.2 µM; with CAKI-1 renal, 80.4 µM; with SN12C renal it was 24.3 µM; in the experiment on T-47D breast it was 26.3 µM. For the same compound, the TGI was 14.1 µM in the experiment with KM12 colon, 61.7 µM in the experiment with IGROV1 ovarian, 65.3 µM with UO-31 renal and 14.7 µM with COLO 205 colon.
